Reference: paper PMC3962378, “Molecular Mechanism of Strict Substrate Specificity of an Extradiol Dioxygenase, DesB, Derived from Sphingobium sp. SYK-6” (PLoS ONE, 2014)

Biological target: T1, DesB (Sphingomonas paucimobilis, UniProt Q5NTE5)
T1 construct: overexpressed in E. coli, purified to near homogeneity; swapped homodimer with active sites at the subunit interface; 418 residues; Fe(II) form
T1 sequence (Q5NTE5 1-418): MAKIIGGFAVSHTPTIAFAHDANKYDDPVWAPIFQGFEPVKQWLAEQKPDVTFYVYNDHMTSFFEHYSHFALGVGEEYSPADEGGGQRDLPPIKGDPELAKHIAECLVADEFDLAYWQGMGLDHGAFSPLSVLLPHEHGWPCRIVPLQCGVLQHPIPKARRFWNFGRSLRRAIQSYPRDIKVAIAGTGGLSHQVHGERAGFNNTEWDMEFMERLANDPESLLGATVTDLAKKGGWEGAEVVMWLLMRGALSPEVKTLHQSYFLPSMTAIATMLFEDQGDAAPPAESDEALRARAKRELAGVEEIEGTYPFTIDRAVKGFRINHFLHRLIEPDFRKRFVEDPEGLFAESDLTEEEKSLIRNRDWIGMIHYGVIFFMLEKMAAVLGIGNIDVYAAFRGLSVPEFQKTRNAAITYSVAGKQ
Assay: X-ray crystal structure (soak)
Type: binding
Conditions: anaerobic, pH 7.75, Fe(II), active site, 2.40 A

Row | Compound | X-ray crystal structure (soak) (10 mM PCA soak, flipped non-productive binding, not turned over) | X-ray crystal structure (soak) (10 mM gallate soak, further complexes 3WKU, 3WPM (co-crystal), 3WR3, 3WR4)
1 | O=C(O)c1ccc(O)c(O)c1 [PCA] | bound PCA was found in the active site of the anaerobic DesB-PCA complex | 
2 | O=C(O)c1cc(O)c(O)c(O)c1 [gallate] |  | gallate is bound to the active site through several hydrogen bonds
